Like-named read-outs stand apart in the source and are kept apart here.
How the values were obtained:
[1] = test system: Key Broadleaf Weed and Crop Species; experiment: Post-Emergent Test II: postemergent herbicidal activity, visual rating after 14 d (Table 7); format: in vivo; settings: post-emergence, 336 h; for pest or weed control at 35 g/ha: 35 g ai/ha; for pest or weed control at 70 g/ha: 70 g ai/ha; for pest or weed control at 140 g/ha: 140 g ai/ha
Excerpt: (§1) Herbicidal evaluations were made visually on a scale of 0 to 100 where 0 represents no activity and 100 represents complete plant death.
(§2) Seeds or nutlets of the desired test plant species were planted in Sun Gro Metro-Mix® 360 planting mixture, which typically has a pH of 6.0 to 6.8 and an organic matter content of about 30 percent, in plastic pots with a surface area of 64 square centimeters (cm^2). When required to ensure good germination and healthy plants, a fungicide treatment and/or other chemical or physical treatment was applied. The plants were grown for 7-21 d in a greenhouse with an approximate 15 h photoperiod which was maintained at about 23-29° C. during the day and 22-28° C. during the night. Nutrients and water were added on a regular basis and supplemental lighting was provided with overhead metal halide 1000-Watt lamps as necessary. The plants were employed for testing when they reached the first or second true leaf stage.
(§3) A weighed amount, determined by the highest rate to be tested, of each test compound was placed in a 25 mL glass vial and was dissolved in 4 mL of a 97:3 v/v mixture of acetone and DMSO to obtain concentrated stock solutions. […] The concentrated stock solutions obtained were diluted with 20 mL of an aqueous mixture containing acetone, water, isopropyl alcohol, DMSO, Atplus 411F crop oil concentrate, and Triton® X-155 surfactant in a 48.5:39:10:1.5:1.0:0.02 v/v ratio to obtain spray solutions containing the highest application rates. Additional application rates were obtained by serial dilution of 12 mL of the high rate solution into a solution containing 2 mL of a 97:3 v/v mixture of acetone and DMSO and 10 mL of an aqueous mixture containing acetone, water, isopropyl alcohol, DMSO, Atplus 411F crop oil concentrate, and Triton X-155 surfactant in a 48.5:39:10:1.5:1.0:0.02 v/v ratio to obtain ½×, ¼×, ⅛× and 1/16× rates of the high rate. Compound requirements are based upon a 12 mL application volume at a rate of 187 liters per hectare (L/ha). Formulated compounds were applied to the plant material with an overhead Mandel track sprayer equipped with 8002E nozzles calibrated to deliver 187 L/ha over an application area of 0.503 square meters at a spray height of 18 inches (43 cm) above the average plant canopy height. Control plants were sprayed in the same manner with the solvent blank.
(§4) The treated plants and control plants were placed in a greenhouse as described above and watered by subirrigation to prevent wash-off of the test compounds. After 14 d, the condition of the test plants as compared with that of the untreated plants was determined visually and scored on a scale of 0 to 100 percent where 0 corresponds to no injury and 100 corresponds to complete kill and are presented as indicated in Table 4.

[2] = test system: Key Grass and Sedge Weeds as well as Grass Crops; experiment: Post-Emergent Test II: postemergent herbicidal activity, visual rating after 14 d (Table 8); format: in vivo; settings: post-emergence, 336 h; for pest or weed control at 35 g/ha: 35 g ai/ha; for pest or weed control at 70 g/ha: 70 g ai/ha; for pest or weed control at 140 g/ha: 140 g ai/ha
Excerpt: as §1, §2, §3, §4

[3] = lambsquarters (Chenopodium album), read-out: Visual Growth Reduction (%) 14 Days After Application CHEAL
[4] = oilseed rape, canola (Brassica napus), read-out: Visual Growth Reduction (%) 14 Days After Application BRSNN
[5] = redroot pigweed (Amaranthus retroflexus), read-out: Visual Growth Reduction (%) 14 Days After Application AMARE
[6] = sunflower (Helianthus annuus), read-out: Visual Growth Reduction (%) 14 Days After Application HELAN
[7] = velvetleaf (Abutilon theophrasti), read-out: Visual Growth Reduction (%) 14 Days After Application ABUTH
[8] = wild poinsettia (Euphorbia heterophylla), read-out: Visual Growth Reduction (%) 14 Days After Application EPHHL
[9] = maize, corn (Zea mays), read-out: Visual Growth Reduction (%) 14 Days After Application ZEAMX
[10] = rice (Oryza sativa), read-out: Visual Growth Reduction (%) 14 Days After Application ORYSA
[11] = wheat, spring (Triticum aestivum), read-out: Visual Growth Reduction (%) 14 Days After Application TRZAS
[12] = yellow nutsedge (Cyperus esculentus), read-out: Visual Growth Reduction (%) 14 Days After Application CYPES
[13] = barnyardgrass (Echinochloa crus-galli), read-out: Visual Growth Reduction (%) 14 Days After Application ECHCG

| SMILES | pest or weed control at 35 g/ha [1, 3] [%] | pest or weed control at 70 g/ha [1, 3] [%] | pest or weed control at 140 g/ha [1, 3] [%] | pest or weed control at 35 g/ha [1, 4] [%] | pest or weed control at 70 g/ha [1, 4] [%] | pest or weed control at 140 g/ha [1, 4] [%] | pest or weed control at 35 g/ha [1, 5] [%] | pest or weed control at 70 g/ha [1, 5] [%] | pest or weed control at 140 g/ha [1, 5] [%] | pest or weed control at 35 g/ha [1, 6] [%] | pest or weed control at 70 g/ha [1, 6] [%] | pest or weed control at 140 g/ha [1, 6] [%] | pest or weed control at 35 g/ha [1, 7] [%] | pest or weed control at 70 g/ha [1, 7] [%] | pest or weed control at 140 g/ha [1, 7] [%] | pest or weed control at 35 g/ha [1, 8] [%] | pest or weed control at 70 g/ha [1, 8] [%] | pest or weed control at 140 g/ha [1, 8] [%] | pest or weed control at 35 g/ha [2, 9] [%] | pest or weed control at 70 g/ha [2, 9] [%] | other results |
| --- | --- | --- | --- | --- | --- | --- | --- | --- | --- | --- | --- | --- | --- | --- | --- | --- | --- | --- | --- | --- | --- |
| COC(=O)c1nc(-c2cc(F)c3c(c2)OC(F)(F)O3)c(F)c(N)c1Cl [Compound 17] | 0 to 29 | 0 to 29 | 0 to 29 | 0 to 29 | 0 to 29 | 0 to 29 | 0 to 29 | 0 to 29 | 0 to 29 | 0 to 29 | 0 to 29 | 0 to 29 | 0 to 29 | 0 to 29 | 0 to 29 | 0 to 29 | 0 to 29 | 0 to 29 | 0 to 29 | 0 to 29 | pest or weed control at 140 g/ha [2, 9]: 60 to 74%; pest or weed control at 35 g/ha [2, 10]: 0 to 29%; pest or weed control at 70 g/ha [2, 10]: 0 to 29%; pest or weed control at 140 g/ha [2, 10]: 0 to 29%; pest or weed control at 35 g/ha [2, 11]: 0 to 29%; pest or weed control at 70 g/ha [2, 11]: 0 to 29%; pest or weed control at 140 g/ha [2, 11]: 0 to 29%; pest or weed control at 35 g/ha [2, 12]: 0 to 29%; pest or weed control at 70 g/ha [2, 12]: 0 to 29%; pest or weed control at 140 g/ha [2, 12]: 0 to 29% |
| COC(=O)c1nc(-c2ccc3c(c2)CCN3C)c(F)c(N)c1Cl [Compound 107] | – | – | – | – | – | – | – | – | – | – | – | – | – | – | – | – | – | – | – | – | pest or weed control at 140 g/ha ([1]; ABUTH: velvetleaf (Abutilon theophrasti), read-out: Visual Growth Reduction (%) 14 Days After Application ABUTH): 60 to 74%; pest or weed control at 140 g/ha ([1]; AMARE: redroot pigweed (Amaranthus retroflexus), read-out: Visual Growth Reduction (%) 14 Days After Application AMARE): 0 to 29%; pest or weed control at 140 g/ha ([1]; BRSNN: oilseed rape, canola (Brassica napus), read-out: Visual Growth Reduction (%) 14 Days After Application BRSNN): 0 to 29%; pest or weed control at 140 g/ha ([1]; CHEAL: lambsquarters (Chenopodium album), read-out: Visual Growth Reduction (%) 14 Days After Application CHEAL): 85 to 94%; pest or weed control at 140 g/ha ([1]; EPHHL: wild poinsettia (Euphorbia heterophylla), read-out: Visual Growth Reduction (%) 14 Days After Application EPHHL): 95 to 100%; pest or weed control at 140 g/ha ([1]; HELAN: sunflower (Helianthus annuus), read-out: Visual Growth Reduction (%) 14 Days After Application HELAN): 0 to 29%; pest or weed control at 140 g/ha ([2]; barnyardgrass (Echinochloa crus-galli), read-out: Visual Growth Reduction (%) 14 Days After Application, ECHCG): 0 to 29%; pest or weed control at 140 g/ha ([2]; giant foxtail (Setaria faberi), read-out: Visual Growth Reduction (%) 14 Days After Application, SETFA): 0 to 29%; pest or weed control at 140 g/ha ([2]; maize, corn (Zea mays), read-out: Visual Growth Reduction (%) 14 Days After Application, ZEAMX): 0 to 29%; pest or weed control at 140 g/ha ([2]; rice (Oryza sativa), read-out: Visual Growth Reduction (%) 14 Days After Application, ORYSA): 0 to 29%; pest or weed control at 140 g/ha ([2]; wheat, spring (Triticum aestivum), read-out: Visual Growth Reduction (%) 14 Days After Application, TRZAS): 0 to 29%; pest or weed control at 140 g/ha ([2]; yellow nutsedge (Cyperus esculentus), read-out: Visual Growth Reduction (%) 14 Days After Application, CYPES): 0 to 29% |
| COC(=O)c1nc(-c2cc3c(cc2F)OC(F)(F)O3)c(F)c(N)c1OC [Compound 22, Methyl 4-amino-5-fluoro-3-methoxy-6-(2,2,6-trifluorobenzo[d][1,3]dioxol-5-yl)picolinate] | 0 to 29 | 0 to 29 | 0 to 29 | 0 to 29 | 0 to 29 | 0 to 29 | 0 to 29 | 0 to 29 | 0 to 29 | 85 to 94 | 85 to 94 | 85 to 94 | 0 to 29 | 0 to 29 | 0 to 29 | 30 to 44 | 45 to 59 | 45 to 59 | 0 to 29 | 60 to 74 | pest or weed control at 35 g/ha [2, 13]: 0 to 29%; pest or weed control at 70 g/ha [2, 13]: 0 to 29%; pest or weed control at 140 g/ha [2, 13]: 45 to 59%; pest or weed control at 140 g/ha [2, 9]: 75 to 84%; pest or weed control at 35 g/ha [2, 10]: 0 to 29%; pest or weed control at 70 g/ha [2, 10]: 0 to 29%; pest or weed control at 140 g/ha [2, 10]: 0 to 29%; pest or weed control at 35 g/ha [2, 11]: 0 to 29%; pest or weed control at 70 g/ha [2, 11]: 45 to 59%; pest or weed control at 140 g/ha [2, 11]: 60 to 74%; pest or weed control at 35 g/ha [2, 12]: 95 to 100%; pest or weed control at 70 g/ha [2, 12]: 95 to 100%; pest or weed control at 140 g/ha [2, 12]: 95 to 100% |
